# Reference: US20160090383A1, “ANTIBACTERIAL PHTHALIDE DERIVATIVES” (priority 2013, published 2016)
# Legend:
# Assay in all cases: Bacterial growth minimal inhibitory concentration (microdilution, CLSI M7-A7)
# Type in all cases: cell-based
# [1] = tested on: Staphylococcus aureus A798; conditions: Staphylococcus aureus, A798; multiply-resistant strain (quinolone-resistant and methicillin-resistant); cation-adjusted Mueller-Hinton Broth; read-out: MIC for S. aureus A798
# Description: (§1) Minimal Inhibitory Concentrations (MICs; […]) were determined in cation-adjusted Mueller-Hinton Broth by a microdilution method following the description given in “Methods for Dilution Antimicrobial Susceptibility Tests for Bacteria that Grow Aerobically”, Approved standard, 7th ed., Clinical and Laboratory Standards Institute (CLSI) Document M7-A7, Wayne, Pa., USA, 2006.
# [2] = tested on: Enterococcus faecium A949; conditions: Enterococcus faecium, A949; multiply-resistant strain (quinolone-resistant and vancomycin-resistant); cation-adjusted Mueller-Hinton Broth; read-out: MIC for E. faecium A949
# Description: as §1
# [3] = tested on: Moraxella catarrhalis A894; conditions: Moraxella catarrhalis, A894; quinolone-sensitive strain; cation-adjusted Mueller-Hinton Broth
# Description: as §1
# [4] = tested on: Staphylococcus aureus ATCC29213; conditions: Staphylococcus aureus, ATCC29213; methicillin-sensitive and quinolone-sensitive strain; cation-adjusted Mueller-Hinton Broth; read-out: MIC for S. aureus ATCC29213
# Description: as §1
# [5] = tested on: Streptococcus pneumonia ATTC49619; conditions: Streptococcus pneumoniae, ATTC49619; quinolone-sensitive strain; cation-adjusted Mueller-Hinton Broth; read-out: MIC for S. pneumonia ATTC49619
# Description: as §1
MIC [1] [µg/mL],MIC [2] [µg/mL],MIC [3] [µg/mL],MIC [4] [µg/mL],MIC [5] [µg/mL],Compound
0.25,0.25,1,0.031,2,"O=C(CC1OC(=O)c2cc(C3=CCCC3)ccc21)NCCn1c(=O)ccc2ccc(F)cc21 (racemic) [Example 12, rac-2-(5-Cyclopent-1-enyl-3-oxo-1,3-dihydro-isobenzofuran-1-yl)-N-[2-(7-fluoro-2-oxo-2H-quinolin-1-yl)-ethyl]-acetamide]"
0.125,0.5,> 8,0.063,1,"O=C1OC(C(=O)NCCCn2c(=O)ccc3ccc(F)cc32)c2ccc(-c3ccccc3)cc21 (racemic) [Example 13, rac-3-Oxo-5-phenyl-1,3-dihydro-isobenzofuran-1-carboxylic acid [3-(7-fluoro-2-oxo-2H-quinolin-1-yl)-propyl]-amide]"
1,0.5,4,0.25,0.5,"O=C1OC(CCNCCn2c(=O)ccc3ccc(F)cc32)c2ccc(-c3ccc(F)cc3F)cc21 (racemic) [Example 15, rac-1-(2-{2-[5-(2,4-Difluoro-phenyl)-3-oxo-1,3-dihydro-isobenzofuran-1-yl]-ethylamino}-ethyl)-7-fluoro-1H-quinolin-2-one]"
0.063,0.25,0.5,≤ 0.016,0.5,"O=C(CC1OC(=O)c2cc(C3=CCCCC3)ccc21)NCCn1c(=O)ccc2ccc(F)cc21 (racemic) [Example 16, rac-2-(5-Cyclohex-1-enyl-3-oxo-1,3-dihydro-isobenzofuran-1-yl)-N-[2-(7-fluoro-2-oxo-2H-quinolin-1-yl)-ethyl]-acetamide]"
≤ 0.016,0.063,0.5,≤ 0.016,0.5,"CC(C)=Cc1ccc2c(c1)C(=O)OC2CC(=O)NCCn1c(=O)ccc2ccc(F)cc21 (racemic) [Example 17, rac-N-[2-(7-Fluoro-2-oxo-2H-quinolin-1-yl)-ethyl]-2-[5-(2-methyl-propenyl)-3-oxo-1,3-dihydro-isobenzofuran-1-yl]-acetamide]"
2,0.5,> 8,0.25,4,"O=C(Cn1c(=O)ccc2ccc(F)cc21)NCCC1OC(=O)c2cc(-c3ccccc3)ccc21 (racemic) [Example 18, rac-2-(7-Fluoro-2-oxo-2H-quinolin-1-yl)-N-[2-(3-oxo-5-phenyl-1,3-dihydro-isobenzofuran-1-yl)-ethyl]-acetamide]"
0.125,0.25,0.25,0.063,0.5,"O=C(Cn1c(=O)ccc2ccc(F)cc21)NCCC1OC(=O)c2cc(-c3cc(F)ccc3F)ccc21 (racemic) [Example 19, rac-N-{2-[5-(2,5-Difluoro-phenyl)-3-oxo-1,3-dihydro-isobenzofuran-1-yl]-ethyl}-2-(7-fluoro-2-oxo-2H-quinolin-1-yl)-acetamide]"
0.125,4,2,0.125,4,"O=C1OC(C(=O)NCCCn2c(=O)ccc3ccc(F)cc32)c2ccc(C3=CCCCC3)cc21 (racemic) [Example 21, rac-5-Cyclohex-1-enyl-3-oxo-1,3-dihydro-isobenzofuran-1-carboxylic acid [3-(7-fluoro-2-oxo-2H-quinolin-1-yl)-propyl]-amide]"
0.125,0.5,1,0.031,1,"O=C(Cn1c(=O)ccc2ccc(F)cc21)NCCC1OC(=O)c2cc(C3=CCCCC3)ccc21 (racemic) [Example 22, rac-N-[2-(5-Cyclohex-1-enyl-3-oxo-1,3-dihydro-isobenzofuran-1-yl)-ethyl]-2-(7-fluoro-2-oxo-2H-quinolin-1-yl)-acetamide]"
1,0.5,> 8,0.25,4,"O=C(Cn1c(=O)ccc2ccc(F)cc21)NCCC1OC(=O)c2cc(C3=CCCC3)ccc21 (racemic) [Example 23, rac-N-[2-(5-Cyclopent-1-enyl-3-oxo-1,3-dihydro-isobenzofuran-1-yl)-ethyl]-2-(7-fluoro-2-oxo-2H-quinolin-1-yl)-acetamide]"
0.5,0.5,0.5,0.125,2,"O=C(Cn1c(=O)ccc2ccc(F)cc21)NCCC1OC(=O)c2cc(-c3cc(F)cc(F)c3)ccc21 (racemic) [Example 24, rac-N-{2-[5-(3,5-Difluoro-phenyl)-3-oxo-1,3-dihydro-isobenzofuran-1-yl]-ethyl}-2-(7-fluoro-2-oxo-2H-quinolin-1-yl)-acetamide]"
0.25,0.5,4,0.063,1,"CC(C)=Cc1ccc2c(c1)C(=O)OC2CCNC(=O)Cn1c(=O)ccc2ccc(F)cc21 (racemic) [Example 25, rac-2-(7-Fluoro-2-oxo-2H-quinolin-1-yl)-N-{2-[5-(2-methyl-propenyl)-3-oxo-1,3-dihydro-isobenzofuran-1-yl]-ethyl}-acetamide]"

# More lines, now with the values behind:
Compound,MIC [1] [µg/mL],MIC [2] [µg/mL],MIC [3] [µg/mL],MIC [4] [µg/mL],MIC [5] [µg/mL]
"COc1ccc2ncc(=O)n(CCNCCC3OC(=O)c4cc(-c5ccccc5)ccc43)c2n1 (racemic) [Example 2, rac-6-Methoxy-4-{2-[2-(3-oxo-5-phenyl-1,3-dihydro-isobenzofuran-1-yl)-ethylamino]-ethyl}-4H-pyrido[2,3-b]pyrazin-3-one]",0.125,0.25,0.5,0.031,0.5
"O=C1OC(CCNCCn2c(=O)ccc3ccc(F)cc32)c2ccc(-c3ccccc3)cc21 (racemic) [Example 3, rac-7-Fluoro-1-{2-[2-(3-oxo-5-phenyl-1,3-dihydro-isobenzofuran-1-yl)-ethylamino]-ethyl}-1H-quinolin-2-one]",0.125,0.25,1,0.031,0.125
"O=C(CC1OC(=O)c2cc(-c3ccccc3)ccc21)NCCn1c(=O)ccc2ccc(F)cc21 (racemic) [Example 4, rac-N-[2-(7-Fluoro-2-oxo-2H-quinolin-1-yl)-ethyl]-2-(3-oxo-5-phenyl-1,3-dihydro-isobenzofuran-1-yl)-acetamide]",0.5,0.5,8,0.125,1
"O=C(CC1OC(=O)c2cc(-c3cccc(F)c3)ccc21)NCCn1c(=O)ccc2ccc(F)cc21 (racemic) [Example 5, rac-N-[2-(7-Fluoro-2-oxo-2H-quinolin-1-yl)-ethyl]-2-[5-(3-fluoro-phenyl)-3-oxo-1,3-dihydro-isobenzofuran-1-yl]-acetamide]",0.25,0.25,1,0.063,0.5
"O=C(CC1OC(=O)c2cc(-c3ccccc3F)ccc21)NCCn1c(=O)ccc2ccc(F)cc21 (racemic) [Example 6, rac-N-[2-(7-Fluoro-2-oxo-2H-quinolin-1-yl)-ethyl]-2-[5-(2-fluoro-phenyl)-3-oxo-1,3-dihydro-isobenzofuran-1-yl]acetamide]",0.25,0.25,2,0.063,0.5
"O=C(CC1OC(=O)c2cc(-c3cccc(F)c3F)ccc21)NCCn1c(=O)ccc2ccc(F)cc21 (racemic) [Example 8, rac-2-[5-(2,3-Difluoro-phenyl)-3-oxo-1,3-dihydro-isobenzofuran-1-yl]-N-[2-(7-fluoro-2-oxo-2H-quinolin-1-yl)-ethyl]-acetamide]",0.25,0.25,0.5,0.031,0.5
"O=C(CC1OC(=O)c2cc(-c3cc(F)ccc3F)ccc21)NCCn1c(=O)ccc2ccc(F)cc21 (racemic) [Example 9, rac-2-[5-(2,5-Difluoro-phenyl)-3-oxo-1,3-dihydro-isobenzofuran-1-yl]-N-[2-(7-fluoro-2-oxo-2H-quinolin-1-yl)-ethyl]-acetamide]",0.125,0.25,0.125,0.031,0.25
"O=C(CC1OC(=O)c2cc(-c3ccc(F)c(F)c3)ccc21)NCCn1c(=O)ccc2ccc(F)cc21 (racemic) [Example 10, rac-2-[5-(3,4-Difluoro-phenyl)-3-oxo-1,3-dihydro-isobenzofuran-1-yl]-N-[2-(7-fluoro-2-oxo-2H-quinolin-1-yl)-ethyl]-acetamide]",> 8,2,> 8,0.5,4
"O=C(CC1OC(=O)c2cc(-c3cc(F)cc(F)c3)ccc21)NCCn1c(=O)ccc2ccc(F)cc21 (racemic) [Example 11, rac-2-[5-(3,5-Difluoro-phenyl)-3-oxo-1,3-dihydro-isobenzofuran-1-yl]-N-[2-(7-fluoro-2-oxo-2H-quinolin-1-yl)-ethyl]-acetamide]",0.25,0.25,0.125,0.031,0.25
